The test deals with T1, squalene synthase (Rattus norvegicus, UniProt Q02769).
T1 construct: from tissue; host or cells: rat liver homogenate
T1 sequence (Q02769 1-416): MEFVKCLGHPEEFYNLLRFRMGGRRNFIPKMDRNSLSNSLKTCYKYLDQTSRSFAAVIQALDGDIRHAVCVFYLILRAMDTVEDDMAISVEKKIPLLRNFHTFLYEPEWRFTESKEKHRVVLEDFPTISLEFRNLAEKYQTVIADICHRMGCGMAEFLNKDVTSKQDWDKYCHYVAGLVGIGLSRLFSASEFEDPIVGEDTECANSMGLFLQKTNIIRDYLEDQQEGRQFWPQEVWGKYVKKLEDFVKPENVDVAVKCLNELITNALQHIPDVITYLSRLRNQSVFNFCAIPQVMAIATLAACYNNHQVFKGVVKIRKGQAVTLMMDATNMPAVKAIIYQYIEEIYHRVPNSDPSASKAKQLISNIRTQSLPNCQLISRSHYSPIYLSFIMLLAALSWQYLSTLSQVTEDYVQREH
The experiment in a line: Inhibition of squalene synthase ([14C]squalene production from [2-14C]farnesylpyrophosphate). The class given is biochemical. The text has this:
A. Biller et al. in J. […] [¹⁴C]squalene is separated from unreacted substrate on thin layer chromatography plates and determined by liquid scintillation counting. […] Acta, Volume 877, 50-60 (1986) and modified to include measurement of cholesterol by high performance liquid chromatography (h.p.l.c.). […] A. […] [¹⁴C] Squalene was separated from unreacted substrate on thin layer chromatography plates and determined by liquid scintillation counting. Inhibition of squalene synthase was quantified by incubating rat liver homogenate with various concentrations of the test compound in the presence of [2-¹⁴C] farnesylpyrophosphate. The concentration of compound giving 50% inhibition of [¹⁴C] squalene production in a 30 minute assay was taken as the IC₅₀ value.

The mark [1] stands for this setting: rat liver homogenate, [2-¹⁴C] farnesylpyrophosphate as substrate, 50% inhibition of [¹⁴C] squalene production in a 30 minute assay, read-out: IC₅₀.

The record followed here is patent publication EP0497091A1, “Bridged cyclic ketal derivatives” (GLAXO GROUP LIMITED, priority 1991, dated 1992).

Like-named read-outs stand apart in the source and are kept apart here. Bounds are passed on as bounds.

Turning to `CCC(C)CC(C)CCC(=O)OC1C(O)C2(CCC(C)=CC(C)Cc3ccccc3)OC(C(=O)O)C(O)(C(=O)O)C1(C(=O)O)O2` (mixture of isomers) [Example 15, [1S-[1α[(Z/E),5S*],3α,4β,5α,6α(4S*6R*),7β]] 1-(3,5-Dimethyl-6-phenyl-3-hexenyl)-4,6,7-trihydroxy-2,8-dioxabicyclo[3.2.1]octane-3,4,5-tricarboxylic acid, 6-(4,6-dimethyloctanoate)], the IC50 is under 100 nM. On to `C=C(CCC12OC(C(=O)O)C(OC(C)=O)(C(=O)O)C(C(=O)O)(O1)C(OC(=O)C=CC(C)CC(C)CC)C2OC(C)=O)C(OC(C)=O)C(C)Cc1ccccc1` (stereo not drawn) [Example 25, [1S-[1α(4R*,5S*),3α,4β,5α,6α(2E,4R*,6R*),7β]] 1-(4-Acetyloxy-5-methyl-3-methylene-6-phenylhexyl)-4,7-diacetyloxy-6-hydroxy-2,8-dioxabicyclo[3.2.1]octane-3,4,5-tricarboxylic acid, 6-(4,6-dimethyl-2-octenoate)], for which the IC50 is under 100 nM. Same read-out and setting: as for `CC[C@H](C)C[C@H](C)/C=C/C(=O)O[C@@H]1[C@@H](O)[C@@]2(C/C=C(\C)C(=O)[C@H](C)Cc3ccccc3)O[C@H](C(=O)O)[C@@](O)(C(=O)O)[C@]1(C(=O)O)O2` (relative stereo) [Example 2, [1S-[1α[(E),5S*],3α,4β,5α,6α(2E,4R*,6R*),7β]] 1-(3,5-Dimethyl-4-oxo-6-phenyl-2-hexenyl)-4,6,7-trihydroxy-2,8-dioxabicyclo[3.2.1]octane-3,4,5-tricarboxylic acid, 6-(4,6-dimethyl-2-octenoate)], the figure is under 100 nM. `CCC(C)CC(C)C=CC(=O)OC1C(O)C2(CCC(C)C(O)C(C)Cc3ccccc3)OC(C(=O)O)C(O)(C(=O)O)C1(C(=O)O)O2` (single isomer, unassigned) [Example 7, [1S-[1α[3R*(S*),4R*,5S*],3α,4β,5α,6α(2E,4R*,6R*),7β]] and [1S-[1α[3R*(S*),4S*,5S*],3α,4β,5α,6α(2E,4R*,6R*),7β]] 1-(4-Hydroxy-3,5-dimethyl-6-phenylhexyl)-4,6,7-trihydroxy-2,8-dioxabicyclo[3.2.1]octane-3,4,5-tricarboxylic acid, 6-(4,6-dimethyl-2-octenoate), isomer 1 and isomer 2]: under setting [1], the IC50 was under 100 nM. As to `C=C(CC[C@]12O[C@H](C(=O)O)[C@@](O)(C(=O)O)[C@](C(=O)O)(O1)[C@H](OC(=O)C1CCCCC1)[C@H]2O)[C@@H](OC(C)=O)[C@H](C)Cc1ccccc1` (relative stereo) [Example 43, [1S-[1α(4R*,5S*),3α,4β,5α,6α,7β]] 1-(4-Acetyloxy-5-methyl-3-methylene-6-phenylhexyl)-4,6,7-trihydroxy-2,8-dioxabicyclo[3.2.1]octane-3,4,5-tricarboxylic acid, 6-(cyclohexanecarboxylate)], the IC50 was under 100 nM. `CCC(C)CC(C)CCC(=O)OC1C(O)C2(CCC(C)C(=O)CCc3ccccc3)OC(C(=O)O)C(O)(C(=O)O)C1(C(=O)O)O2` (stereo not drawn) [Example 21, [1S-[1α[3R*(S*)],3α,4β,5α,6α(4S*,6R*),7β]] 1-(3-Methyl-4-oxo-6-phenylhexyl)-4,6,7-trihydroxy-2,8-dioxabicyclo[3.2.1]octane-3,4,5-tricarboxylic acid, 6-(4,6-dimethyloctanoate)] displayed an IC50 of under 100 nM.

In the case of `C=C(CC[C@]12O[C@H](C(=O)O)[C@@](O)(C(=O)O)[C@](C(=O)O)(O1)[C@H](OC(=O)c1ccccc1)[C@H]2O)[C@@H](OC(C)=O)[C@H](C)Cc1ccccc1` (relative stereo) [Example 47, [1S-[4α(4R*,5S*),3α,4β,5α,6α,7β]] 1-(4-Acetyloxy-5-methyl-3-methylene-6-phenylhexyl)-4,6,7-trihydroxy-2,8-dioxabicyclo[3.2.1]octane-3,4,5-tricarboxylic acid, 6-benzoate], the IC50 is under 100 nM. As for `CCC(C)CC(C)CCC(=O)OC1C(O)C2(CCCC(=O)CCc3ccccc3)OC(C(=O)O)C(O)(C(=O)O)C1(C(=O)O)O2` (stereo not drawn) [Example 19, [1S-[1α,3α,4β,5α,6α(4S*,6R*),7β]] 1-(4-Oxo-6-phenylhexyl)-4,6,7-trihydroxy-2,8-dioxabicyclo[3.2.1]octane-3,4,5-tricarboxylic acid, 6-(4,6-dimethyloctanoate)], the IC50 was under 100 nM. Same read-out and setting: the value for `C=C(CC[C@]12O[C@H](C(=O)O)[C@@](O)(C(=O)O)[C@](C(=O)O)(O1)[C@H](OC(=O)OCCCC)[C@H]2O)[C@@H](OC(C)=O)[C@H](C)Cc1ccccc1` (relative stereo) [Example 60, [1S-[1α(4R*,5S*)3α,4β,5α,6α,7β]] 1-(4-Acetyloxy-5-methyl-3-methylene-6-phenylhexyl)-6-[(butoxycarbonyl)oxy]-4,7-dihydroxy-2,8-dioxabicyclo[3.2.1]octane-3,4,5-tricarboxylic acid] was under 100 nM; that for `CC[C@H](C)C[C@H](C)/C=C/C(=O)O[C@@H]1[C@@H](O)[C@@]2(C/C=C(\C)C[C@H](C)Cc3ccccc3)O[C@H](C(=O)O)[C@@](O)(C(=O)O)[C@]1(C(=O)O)O2` (relative stereo) [Example 9, [1S-[1α[(E),5R*],3α,4β,5α,6α(2E,4R*,6R*),7β]] 1-(3,5-Dimethyl-6-phenyl-2-hexenyl)-4,6,7-trihydroxy-2,8-dioxabicyclo[3.2.1]octane-3,4,5-tricarboxylic acid, 6-(4,6-dimethyl-2-octenoate)] was under 100 nM. With `CCC(C)CC(C)/C=C/C(=O)OC1C(O)C2(CCC(C)C(=O)C(C)Cc3ccccc3)OC(C(=O)O)C(O)(C(=O)O)C1(C(=O)O)O2` (single isomer, unassigned) [Example 6, [1S-[1α[3R*(S*),5S*],3α,4β,5α,6α(2E,4R*,6R*),7β]] 1-(3,5-Dimethyl-4-oxo-6-phenylhexyl)-4,6,7-trihydroxy-2,8-dioxabicyclo[3.2.1]octane-3,4,5-tricarboxylic acid, 6-(4,6-dimethyl-2-octenoate), isomer 1 and isomer 2], the IC50 under setting [1] was under 100 nM. Compound `C=C(CC[C@]12O[C@H](C(=O)O)[C@@](O)(C(=O)O)[C@](C(=O)O)(O1)[C@H](OC(=O)/C=C/c1ccccc1)[C@H]2O)[C@@H](OC(C)=O)[C@H](C)Cc1ccccc1` (relative stereo) [Example 49, [1S-[1α(4R*,5S*),3α,4β,5α,6α(2E),7β]] 1-(4-Acetyloxy-5-methyl-3-methylene-6-phenylhexyl)-4,6,7-trihydroxy-2,8-dioxabicyclo[3.2.1]octane-3,4,5-tricarboxylic acid, 6-(3-phenyl-2-propenoate)] had an IC50 of under 100 nM. On to `CC[C@H](C)C[C@H](C)/C=C/C(=O)O[C@@H]1[C@@H](O)[C@@]2(C/C=C(\C)[C@@H](O)[C@H](C)Cc3ccccc3)O[C@H](C(=O)O)[C@@](O)(C(=O)O)[C@]1(C(=O)O)O2` (relative stereo) [Example 5, [1S-[1α[(E),4R*,5S*],3α,4β,5α,6α(2E,4R*,6R*),7β]] 1-(4-Hydroxy-3,5-dimethyl-6-phenyl-2-hexenyl)-4,6,7-trihydroxy-2,8-dioxabicyclo[3.2.1]octane-3,4,5-tricarboxylic acid, 6-(4,6-dimethyl-2-octenoate)], for which the IC50 was under 100 nM. Same read-out and setting: the value for `CCC(C)CC(C)CCC(=O)OC1C(O)C2(CCCC(=O)C(C)Cc3ccccc3)OC(C(=O)O)C(O)(C(=O)O)C1(C(=O)O)O2` (stereo not drawn) [Example 20, [1S-[1α(5R*S*),3α,4β,5α,6α(4S*,6R*),7β]] 1-(5-Methyl-4-oxo-6-phenylhexyl)-4,6,7-trihydroxy-2,8-dioxabicyclo[3.2.1]octane-3,4,5-tricarboxylic acid, 6-(4,6-dimethyloctanoate)] was under 100 nM; that for `C=C(CC[C@]12O[C@H](C(=O)O)[C@@](O)(C(=O)O)[C@](C(=O)O)(O1)[C@H](OC(=O)NC)[C@H]2O)[C@@H](OC(C)=O)[C@H](C)Cc1ccccc1` (relative stereo) [Example 67, [1S-[1α(4R*,5S*),3α,4β,5α,6α,7β]] 1-(4-Acetyloxy-5-methyl-3-methylene-6-phenylhexyl)-4,7-dihydroxy-6-[[(methylamino)carbonyl]oxy]-2,8-dioxabicyclo[3.2.1]octane-3,4,5-tricarboxylic acid] was under 100 nM; that for `C=C(CCC12OC(C(=O)O)C(O)(C(=O)O)C(C(=O)O)(O1)C(OC(C)=O)C2O)C(OC(C)=O)C(C)Cc1ccccc1` (stereo not drawn) [Compound 1 in Example 28, [1S-[1α(4R*,5S*),3α,4β,5α,6α,7β]] 1-(4-Acetyloxy-5-methyl-3-methylene-6-phenylhexyl)-4,6,7-trihydroxy-2,8-dioxabicyclo[3.2.1]octane-3,4,5-tricarboxylic acid, 6-acetate] was under 100 nM.

Take `COC(=O)OC1C(O)C2(CCC(C)C(OC(C)=O)C(C)Cc3ccccc3)OC(C(=O)O)C(O)(C(=O)O)C1(C(=O)O)O2` (stereo not drawn) [Compound (I) in Example 65, [1S-[1α(3R*S*,4S*,5S*),3α,4β,5α,6α,7β]] 1-(4-Acetyloxy-3,5-dimethyl-6-phenylhexyl)-4,7-dihydroxy-6-[[(methoxycarbonyl]oxy]-2,8-dioxabicyclo[3.2.1]octane-3,4,5-tricarboxylic acid]: the IC50 under setting [1] is under 100 nM.
